Patent US20120016010A1, “RNA Interference Mediated Inhibition of BTB and CNC Homology 1, Basic Leucine Zipper Transcription Factor 1 (BACH1) Gene Expression Using Short Interfering Nucleic Acid (siNA)” (Merck Sharp & Dohme Corp, priority 2009, published 2012)

How the values were obtained:
Format in all cases: cell-based
Bach1 mRNA [1] = experiment: Bach1 mRNA knockdown and potency in human bronchial epithelial cells (NHBE); details: 48 hours post transfection, mean of 3 donors; for EC50: Bach1 mRNA knockdown; for Maximum mRNA knockdown: Bach1 mRNA
Protocol: The siNAs with Duplex ID numbers corresponding to 29961-DC, 29964-DC, 29984-DC, 29988-DC, 29957-DC, 29947-DC, and 29956-DC were tested for maximum Bach1 mRNA knockdown and for potency in human bronchial epithelial cells as follows.
Human Bronchial Epithelial cells (NHBE cells) obtained from Lonza (Cat. No. CC-2540) were grown at 37deg in the presence of 5% CO2 and cultured in BEBM basal medium (Lonza, Cat. No. CC-3171) on Biocoat Collagen1 coated flasks (Becton Dickinson).
NHBE cells were plated in collagen 1 coated plates and cultured in appropriate culture media. The cells were cultured for 24 hours after plating at 37 degrees in the presence of 5% CO2. siNAs were diluted in OptiMEM 1 to 1 uM and the transfection agent to 25 ug/ml. For formulation of the siNAs equal volumes of the diluted siNA and delivery lipid were combined and incubated for 20 minutes at room temperature. Cells were meanwhile trypsinised and resuspended in antibiotic free BEBM media at 150,000 cells/ml. 20 ul of the formulated siNA and 80 ul of BEBM media was added per well of a 96 well plate (6 replicates/data point/siNA concentration) so as to give a nine point dose range of the siNAs (100 nM, 30 nM, 10 nM, 3 nM, 1 nM, 0.3 nM, 0.1 nM, 0.03 nM, 0.01 nM). The time of incubation with the transfection-siNA complexes were 48 hours with one change of media at 24 hours.
Total RNA was isolated from the cells in the 96-well plate format using the Automated SV96 Total RNA Isolation System (Promega) according to the manufacturer's instructions. The Biomek 2000 Laboratory Automation Workstation (Beckman Coulter) was used to apply the transfected cell lysates to a silica membrane. RNase-Free DNase I was then applied directly to the silica membrane to digest contaminating genomic DNA. The bound total RNA was further purified from contaminating salts, proteins and cellular impurities by simple washing steps. Finally, total RNA was eluted from the membrane by the addition of Nuclease-Free Water.
A series of probes and primers were used for the detection of mRNA transcripts of Bach1, OAS1, IL8 and GAPDH (as control/normalisation) in the human cell lines. The assays were performed on an ABI 7900HT instrument according to the manufacturer's instructions. Primer Probe sets used:
With Taqman data critical threshold values (Ct) were converted to copy numbers corresponding to the particular gene analysed in each well of the 384 well plate. Six identical wells were prepared in each plate for a given treatment. […] Determination of the percentage coefficient of variation (CV) (% C.V.=[standard deviation/average]*100) allowed the omitting of wells whose value was an outlier (so that % C.V.<25). Relative abundance (aka relative expression) of a gene was determined by dividing the mean copy number of that gene with its GAPDH counterpart in that particular sample.
EC50 values were calculated from the data using sigma plot. All calculations of the efficacy and potency of the siNAs were done relative to the non-targeting control siNA. Percentage knockdown was compared between the four lead siNA's. The data was analysed using an ANOVA test and then the p-values were corrected for multiple comparisons using the False Discovery Rate correction (FDR).

Bach1 mRNA [2] = experiment: Dose-response curve of Bach1 mRNA knock-down in human A549 cells; details: for Maximum % KD in DRC: Table 6, Bach1 mRNA, mean ± SD; for IC50: Table 6, mean ± SD
Bach1 mRNA [3] = experiment: Initial screen: Bach1 mRNA knock-down in mouse NIH 3T3 cells (96-well transfection, quantitative RT-PCR); details: mouse NIH3T3 cells, n = 2, 24 hrs post-transfection, protocol 10 nM siNA

Substance	EC50 (Bach1 mRNA [1])	Maximum mRNA knockdown (Bach1 mRNA [1])	Maximum % KD in DRC (Bach1 mRNA [2])	IC50 (Bach1 mRNA [2])	% KD (Bach1 mRNA [3])
29947-DC (sense GGAAUCCUGCUUUCAGUUUTT; antisense AAACUGAAAGCAGGAUUCCUU; inverted abasic caps (B), 2'-modified nucleotides, further chemistry not given here)	4310 pM	65%	86 ± 0.5%	27 ± 5 pM	46 ± 5.8%
29956-DC (sense GUCUGAGUGUCCGUGGUUATT; antisense UAACCACGGACACUCAGACUU; inverted abasic caps (B), 2'-modified nucleotides, further chemistry not given here)	2160 pM	68%	80 ± 7.7%	28 ± 18 pM	−14.5 ± 8.4%
29957-DC (sense GCAGUUACUUCCACUCAAGTT; antisense CUUGAGUGGAAGUAACUGCUU; inverted abasic end caps, TT overhangs, modified nucleotides, further chemistry not given here)	950 pM	70%	87 ± 0.9%	39 ± 13 pM	42.4 ± 1.2%
29961-DC (sense CUACACUGCUAAACUGAUUTT; antisense AAUCAGUUUAGCAGUGUAGUU; inverted abasic end caps, TT overhangs, modified nucleotides, further chemistry not given here)	7870 pM	80%	89 ± 2.2%	10 ± 4 pM	−23.5 ± 4.6%
29964-DC (sense GAUUUGCAGGUGAUGUUAATT; antisense UUAACAUCACCUGCAAAUCUU; inverted abasic end caps, TT overhangs, modified nucleotides, further chemistry not given here)	9520 pM	72%	87 ± 2.8%	27 ± 15 pM	19.6 ± 3.9%
29984-DC (sense GUUAAAGGAUUUGAACCUUTT; antisense AAGGUUCAAAUCCUUUAACUU; inverted abasic end caps, TT overhangs, modified nucleotides, further chemistry not given here)	23200 pM	65%	–	–	50.5 ± 0.8%
29988-DC (sense AUUUGAACCUUUAAUUCAGTT; antisense CUGAAUUAAAGGUUCAAAUUU; inverted abasic end caps, TT overhangs, modified nucleotides, further chemistry not given here)	3840 pM	70%	84 ± 0.9%	63 ± 19 pM	71.3 ± 8.9%
